Test results taken from article PMC6934184, “Selective DNA-PKcs inhibition extends the therapeutic index of localized radiotherapy and chemotherapy” (The Journal of Clinical Investigation, 2019).

Biological target: T1, GRK5 (Homo sapiens, UniProt P34947)
T1 construct: purchased Thermo Fisher Scientific (Life Technologies) SelectScreen
Assay: SelectScreen Z'LYTE
Type: biochemical
Summary of the method: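 NU5455 was profiled across the SelectScreen Broad panel of kinase activity and binding assays. Z'LYTE reactions such as CSF1R ran at apparent Km ATP, while the Adapta CAMK1 assay used ATP listed as 10. Values are given as percent.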

T1 sequence (P34947 whole entry): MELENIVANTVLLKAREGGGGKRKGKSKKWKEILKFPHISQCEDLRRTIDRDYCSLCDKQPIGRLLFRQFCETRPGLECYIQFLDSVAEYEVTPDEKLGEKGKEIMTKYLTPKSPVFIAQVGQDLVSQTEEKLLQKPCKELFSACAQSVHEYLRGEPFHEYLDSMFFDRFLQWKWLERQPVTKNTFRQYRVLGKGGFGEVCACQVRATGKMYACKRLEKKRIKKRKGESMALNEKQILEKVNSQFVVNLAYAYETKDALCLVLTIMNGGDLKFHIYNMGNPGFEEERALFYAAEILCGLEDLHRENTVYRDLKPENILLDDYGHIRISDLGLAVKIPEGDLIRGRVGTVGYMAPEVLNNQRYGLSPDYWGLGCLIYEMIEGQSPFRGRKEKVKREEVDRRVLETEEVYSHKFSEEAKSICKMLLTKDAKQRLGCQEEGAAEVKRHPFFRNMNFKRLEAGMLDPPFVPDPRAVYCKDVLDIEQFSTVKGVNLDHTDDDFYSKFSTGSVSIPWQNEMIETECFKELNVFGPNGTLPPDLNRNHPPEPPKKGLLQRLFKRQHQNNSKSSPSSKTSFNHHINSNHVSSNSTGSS

## CN(C(=O)CN1CCOCC1)c1ccc2sc3c(-c4cccc5c(=O)cc(N6CC7CCC(C6)O7)oc45)cccc3c2c1 [NU5455]
  inhibition at 1 µM: -3.2%
